Data: patent US20090176804A1, “2-PHENYL-INDOLES AS PROSTAGLANDIN D2 RECEPTOR ANTAGONISTS” (priority 2006, published 2009)

The molecules below were run against T1, DP receptor (Homo sapiens, UniProt Q13258) (assay: SPA cAMP assay in human LS174 T cells (human DP functional assay)). Conditions: concentration of the compound producing 50% inhibition in the SPA cAMP assay in human LS174 T cells; PGD2 15 nM final.
T1 construct: the human cell line LS174T, which expresses the endogenous DP receptor; endogenous in cells; host or cells: LS174T (human cell line)
T1 sequence (Q13258 1-359): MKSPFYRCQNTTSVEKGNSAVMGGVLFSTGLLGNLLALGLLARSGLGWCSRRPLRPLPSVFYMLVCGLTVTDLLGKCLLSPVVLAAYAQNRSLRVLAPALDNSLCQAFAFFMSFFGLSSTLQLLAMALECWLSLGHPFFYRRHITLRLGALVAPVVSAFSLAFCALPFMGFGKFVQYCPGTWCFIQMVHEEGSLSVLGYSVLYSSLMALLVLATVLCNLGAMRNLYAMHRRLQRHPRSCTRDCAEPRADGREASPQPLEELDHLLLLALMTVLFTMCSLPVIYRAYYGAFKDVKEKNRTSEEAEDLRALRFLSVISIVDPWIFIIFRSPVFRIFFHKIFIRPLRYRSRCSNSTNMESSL
Format: cell-based
Excerpt: As used in the examples and preparations that follow, as well as the rest of the application, the terms used therein shall have the meanings indicated: “kg” refers to kilograms, “g” refers to grams, “mg” refers to milligrams, “μg” refers to micrograms, “mol” refers to moles, “mmol” refers to millimoles, “M” refers to molar, “mM” refers to millimolar, “μM” refers to micromolar, “nM” refers to nanomolar, “L” refers to liters, “mL” or “ml” refers to milliliters, “μL” refers to microliters, “° C.” refers to degrees Celsius, “mp” or “m.p.” refers to melting point, “bp” or “b.p.” refers to boiling point, “mm of Hg” refers to pressure in millimeters of mercury, “cm” refers to centimeters, “nm” refers to nanometers, “abs.” refers to absolute, “conc.” refers to concentrated, “c” refers to concentration in g/mL, “rt” refers to room temperature, “TLC” refers to thin layer chromatography, “HPLC” refers to high performance liquid chromatography, “i.p.” refers to intraperitoneally, “i.v.” refers to intravenously, “s”=singlet, “d”=doublet; “t”=triplet; “q”=quartet; “m”=multiplet, “dd”=doublet of doublets; “br”=broad, “LC”=liquid chromatograph, “MS”=mass spectrograph, “ESI/MS”=electrospray ionization/mass spectrograph, “RT”=retention time, “M”=molecular ion, “PSI”=pounds per square inch, “DMSO”=dimethyl sulfoxide, “DMF”=N,N-dimethylformamide, “CDI”=1,1′-carbonyldiimidazole, “DCM” or “CH2Cl2”=dichloromethane, “HCl”=hydrochloric acid, “SPA”=Scintillation Proximity Assay, “ATTC”=American Type Culture Collection, “FBS”=Foetal Bovine Serum, “MEM”=Minimal Essential Medium, “CPM”=Counts Per Minute, “EtOAc”=ethyl acetate, “PBS”=Phosphate Buffered Saline, “TMD”=transmembrane domain, “IBMX”=3-isobutyl-1-methylxanthine, “cAMP”=cyclic adenosine monophosphate, “IUPAC”=International Union of Pure and Applied Chemistry, “MHz”=megahertz, “PEG”=polyethylene glycol, “MeOH”=methanol, “N”=normality, “THF”=tetrahydrofuran, “h”=hours, “min”=minute(s), “MeNH2”=methyl amine, “N2”=nitrogen gas, “iPrOH”=isopropyl alcohol, “O.D.”=outer diameter, “MeCN” or “CH3CN”=acetonitrile, “Et2O”=ethyl ether, “TFA”=TFA, “Prep LC”=preparatory “flash” liquid chromatography, “SPE”=solid phase extraction, “LAH”=lithium aluminum hydride, “pmol”=picomolar, “heptane”=n-heptane, “HMBA-AM” resin=4-hydroxymethylbenzoic acid amino methyl resin, “PdCl2(dppf)2”=1,1′-bis(diphenylphosphino)ferrocene-palladium (II) dichloride DCM complex, “HBTU”=2-(1H-benzotriazol-1yl)-1,1,3,3-tetramethyluronium hexafluorophosphate, “DIEA”=diisopropylethylamine, “CsF”=cesium fluoride, “LiOH”=lithium hydroxide, “˜”=approximately, “IC50”=the concentration of the compound producing 50% inhibition in the SPA cAMP assay in human LS174 T cells.
The inhibitory effects of the compounds according to the invention are assessed in a human DP functional assay. A cAMP assay is employed using the human cell line LS174T, which expresses the endogenous DP receptor. The protocol is similar to that described previously (Wright D H, Ford-Hutchinson A W, Chadee K, Metters K M, The human prostanoid DP receptor stimulates mucin secretion in LS174T cells, Br J Pharmacol. 131(8):1537-45 (2000)).
Protocol for SPA cAMP Assay in Human LS174 T Cells
• PGD2 (Cayman Chemical Cat#12010) • IBMX (Sigma Cat# 5879) • cAMP SPA direct screening assay system (Amersham code RPA 559) • 96-well cell plates (Wallac Cat#1450-516) • Wallac 1450 Microplate Trilux scintillation counter (PerkinElmer) • Plate sealers • Eppendorf tubes • Dulbecco's Phosphate-Buffered Saline (PBS) (Invitrogen Cat#14040-133) • Distilled water • Vortex • Magnetic stirrer and stirrer bars
Add 50 μL of […] IBMX into 100 mL PBS to make a final concentration of 100 μM and sonicate at 30° C. for 20 minutes.
Dissolve 1 mg PGD2 (FW, 352.5) in 284 μL DMSO to make 10 mM stock solution and store at […]. Before each assay, it is freshly prepared. Add 3 μL of 10 mM stock solution to […], mix it thoroughly, and transfer 10 mL to 40 mL PBS. […]

Row | Compound | IC50 [nM]
1 | O=C(O)Cc1c(-c2ccc(Cl)c(S(=O)(=O)NC3CCCCC3)c2)[nH]c2cccc(F)c12 [Example 6, [2-(4-Chloro-3-cyclohexylsulfamoyl-phenyl)-4-fluoro-1H-indol-3-yl]-acetic Acid] | 0.7
2 | CNC(=O)Cc1c(-c2ccc(Cl)c(S(=O)(=O)NC3CCCCC3)c2)[nH]c2ccccc12 [Example 3, 2-[2-(4-Chloro-3-cyclohexylsulfamoyl-phenyl)-1H-indol-3-yl]-N-methyl-acetamide] | 509
3 | O=C(O)Cc1c(-c2ccc(Cl)c(S(=O)(=O)NCc3cc(Cl)cc(Cl)c3)c2)[nH]c2ccccc12 [Example 1(c), {2-[4-Chloro-3-(3,5-dichloro-benzylsulfamoyl)-phenyl]-1H-indol-3-yl}-acetic Acid] | 12
4 | CC(C(=O)O)c1c(-c2ccc(Cl)c(S(=O)(=O)NC3CCCCC3)c2)[nH]c2ccccc12 (stereo not shown) [Example 14, 2-[2-(4-Chloro-3-cyclohexylsulfamoyl-phenyl)-1H-indol-3-yl]-propionic Acid] | 5.3
5 | O=C(Cc1c(-c2ccc(Cl)c(S(=O)(=O)NC3CCCCC3)c2)[nH]c2ccccc12)Nc1nnn[nH]1 [Example 12, 2-[2-(4-Chloro-3-cyclohexylsulfamoyl-phenyl)-1H-indol-3-yl]-N-(1H-tetrazol-5-yl)-acetamide] | 15
6 | O=C(O)Cc1c(-c2ccc(Cl)c(S(=O)(=O)NCc3ccc(Cl)cc3Cl)c2)[nH]c2ccccc12 [Example 1(a), {2-[4-Chloro-3-(2,4-dichloro-benzylsulfamoyl)-phenyl]-1H-indol-3-yl}-acetic Acid] | 4
7 | O=C(O)Cc1c(-c2ccc(Cl)c(S(=O)(=O)Cc3cccc(Cl)c3)c2)[nH]c2ccccc12 [Example 15, {2-[4-Chloro-3-(3-chloro-phenylmethanesulfonyl)-phenyl]-1H-indol-3-yl}-acetic Acid] | 106
8 | O=C(O)Cc1c(-c2ccc(Cl)c(S(=O)(=O)NCc3c(Cl)cccc3Cl)c2)[nH]c2ccccc12 [Example 1(b), {2-[4-Chloro-3-(2,6-dichloro-benzylsulfamoyl)-phenyl]-1H-indol-3-yl}-acetic Acid] | 3
9 | CCc1ccc(-c2[nH]c3ccccc3c2CC(=O)O)cc1S(=O)(=O)NC1CCCCC1 [Example 13, [2-(3-cyclohexylsulfamoyl-4-ethyl-phenyl)-1H-indol-3-yl]-acetic Acid] | 0.5
10 | CCS(=O)(=O)NC(=O)Cc1c(-c2ccc(Cl)c(S(=O)(=O)NC3CCCCC3)c2)[nH]c2ccccc12 [Example 10, 2-Chloro-N-cyclohexyl-5-[3-(2-ethanesulfonylamino-2-oxo-ethyl)-1H-indol-2-yl]-benzenesulfonamide] | 2.7
11 | O=C(O)Cc1c(-c2ccc(Cl)c(S(=O)(=O)NCCc3ccc(Cl)cc3Cl)c2)[nH]c2ccccc12 [Example 1(d), (2-{4-Chloro-3-[2-(2,4-dichloro-phenyl)-ethylsulfamoyl]-phenyl}-1H-indol-3-yl)-acetic Acid] | 2
12 | O=C(O)Cc1c(-c2ccc(Cl)c(NS(=O)(=O)Cc3cccc(Cl)c3)c2)[nH]c2ccccc12 [Example 16, {2-[4-Chloro-3-(3-chloro-phenylmethanesulfonylamino)-phenyl]-1H-indol-3-yl}-acetic Acid] | 12
13 | O=C(O)Cc1c(-c2ccc(Cl)c(S(=O)(=O)NC3CCCCC3)c2)[nH]c2c(Cl)cccc12 [Example 8, [7-Chloro-2-(4-chloro-3-cyclohexylsulfamoyl-phenyl)-1H-indol-3-yl]-acetic Acid] | 3.7
14 | O=C(O)Cc1c(-c2ccc(Cl)c(S(=O)(=O)NC3CCCCC3)c2)[nH]c2cccc(Cl)c12 [Example 4, [4-Chloro-2-(4-chloro-3-cyclohexylsulfamoyl-phenyl)-1H-indol-3-yl]-acetic Acid] | 0.2
15 | COc1cccc(CCNS(=O)(=O)c2cc(-c3[nH]c4ccccc4c3CC(=O)O)ccc2Cl)c1 [Example 2(b), (2-{4-Chloro-3-[2-(3-methoxy-phenyl)-ethylsulfamoyl]-phenyl}-1H-indol-3-yl)-acetic Acid] | 3.3
16 | O=C(O)Cc1c(-c2ccc(Cl)c(S(=O)(=O)NCCCc3ccccc3)c2)[nH]c2ccccc12 [Example 2(f), {2-[4-Chloro-3-(3-phenyl-propylsulfamoyl)-phenyl]-1H-indol-3-yl}-acetic Acid] | 7
17 | Cc1cccc2[nH]c(-c3ccc(Cl)c(S(=O)(=O)NC4CCCCC4)c3)c(CC(=O)O)c12 [Example 7, [2-(4-Chloro-3-cyclohexylsulfamoyl-phenyl)-4-methyl-1H-indol-3-yl]-acetic Acid] | 1.5
18 | O=C(Cc1c(-c2ccc(Cl)c(S(=O)(=O)NC3CCCCC3)c2)[nH]c2ccccc12)NS(=O)(=O)C(F)(F)F [Example 11, 2-Chloro-N-cyclohexyl-5-[3-(2-oxo-2-trifluoromethanesulfonylamino-ethyl)-1H-indol-2-yl]-benzenesulfonamide] | 14
19 | COc1ccc(CCNS(=O)(=O)c2cc(-c3[nH]c4ccccc4c3CC(=O)O)ccc2Cl)cc1 [Example 2(c), (2-{4-Chloro-3-[2-(4-methoxy-phenyl)-ethylsulfamoyl]-phenyl}-1H-indol-3-yl)-acetic Acid] | 3
20 | COc1ccccc1CCNS(=O)(=O)c1cc(-c2[nH]c3ccccc3c2CC(=O)O)ccc1Cl [Example 2(a), (2-{4-Chloro-3-[2-(2-methoxy-phenyl)-ethylsulfamoyl]-phenyl}-1H-indol-3-yl)-acetic Acid] | 3.8
21 | CS(=O)(=O)NC(=O)Cc1c(-c2ccc(Cl)c(S(=O)(=O)NC3CCCCC3)c2)[nH]c2ccccc12 [Example 9, 2-Chloro-N-cyclohexyl-5-[3-(2-methanesulfonylamino-2-oxo-ethyl)-1H-indol-2-yl]-benzenesulfonamide] | 2
22 | O=C(O)Cc1c(-c2ccc(Cl)c(S(=O)(=O)NCCc3ccccc3OC(F)(F)F)c2)[nH]c2ccccc12 [Example 2(d), (2-{4-Chloro-3-[2-(2-trifluoromethoxy-phenyl)-ethylsulfamoyl]-phenyl}-1H-indol-3-yl)-acetic Acid] | 20
